Patent US7229966B2, “Compositions and methods for enhanced mucosal delivery of Y2 receptor-binding peptides and methods for treating and preventing obesity” (Nastech Pharmaceutical Company Inc., priority 2002, dated 2007)
Read-outs that look alike come from different tables or passages of the source.

Key:
[1] = test system: ciliary motility; details: cited from earlier work
[2] = test system: aminopeptidases; details: cited from earlier work
[3] = aqueous solution at physiologic pH; cited from earlier work
[4] = anesthetized rats, cited from earlier work
[5] = 0.5 mg/mL in phosphate buffer, pH 7.4; vortex mixing 1 min; cited from earlier work

In the case of “2-alkyl-4-hydroxyquinolines [pyo compound]”, the “concentration producing ciliostasis / inhibiting ciliary motility” value [1] is listed as 50 µg/mL.
For CC(C(=O)[O-])c1ccc(NC(=O)c2ccccc2O)cc1.[Na+] (stereo not drawn) [Sodium Salt of Carrier B, Sodium 2-(4-(N-salicyloyl)aminophenyl)propionate], the melting point was 236 to 238 °C.
For CC(C)CC(N)B(O)O (stereo not drawn) [boro-leucine], the “effectiveness in enzyme inhibition relative to bestatin” value [2] is given as “more than 100 times” and the “effectiveness in enzyme inhibition relative to puromycin” value [2] is given as “more than 1000 times”.
In the case of CCN(CC)/[N+]([O-])=N/O.CCNCC [diethylamine/NO], the NO release time [3] is listed as under 3 min.
In the case of NCCN(CCN)/[N+]([O-])=N/O [diethylenetriamine/NO (DETANO), diethylenetriamine/NO], the NO release time [3] is given as “approximately 20 hours”.
In the case of “human growth hormone (hGH): peptide hormone human growth hormone”, the nasal bioavailability ([4]; with N-acetyl-L-cysteine (ACS)) is given as 12.2%, the nasal bioavailability ([4]; without N-acetyl-L-cysteine) is given as 7.5% and the “drug precipitated as insoluble aggregates” value [5] is given as 67%.
